According to US9242945B2, “Substituted 2-benzylidene-2H-benzo[b][1,4]thiazin-3(4H)-ones, derivatives thereof, and therapeutic uses thereof” (TEMPLE UNIVERSITY—OF THE COMMONWEALTH SYSTEM OF HIGHER …, priority 2011, dated 2016):
Where two headings read alike, the source gives them in different places.

Columns and labels:
[1] = system: K562 (chronic myelogenous leukemia; leukemia cell line +ve for Bcr-Abl); assay: Cytotoxicity assay, K562 tumor cells; type: cell-based; conditions: Homo sapiens, K562, 96 h treatment
Method: (§1) The effect of the compounds of the invention on tumor cells was determined by the assay described by Latham et al., Oncogene 12:827-837 (1996). Tumor cells K562 (chronic myelogenous leukemia; leukemia cell line +ve for Bcr-Abl) or DU145 (prostate cancer) were plated in 12-well dishes at a cell density of 2.5×10^4 cells well. The plated cells were treated 24 hours later with a compound of the invention dissolved in DMSO at multiple concentrations ranging from 0.01 μM to 100 μM. The plates were examined 96 hours later under an inverted microscope, Olympus CK-2 using a 10× objective, and compound activity was noted by physical observation. When necessary, the total number of viable cells was determined by trypsinizing the wells and counting the number of viable cells, as determined by trypan blue exclusion, using a hemacytometer. Where “Lower” and “Upper” value are provided in Table 5, the IC50 was determined to be within that range. When only a “Lower” value is provided and no “Upper” value is listed, the IC50 was that value, or less than or greater than that value, as set forth in the Table.
(§2) The cytotoxicity of Compound 42, (Z)-6-((2,6-dichlorobenzyl)sulfonyl)-2-(4-hydroxy-3-nitrobenzylidene)-2H-benzo[b][1,4]thiazin-3(4H)-one, was determined according the assay method of Example 7 on the prostate (androgen dependent or independent), breast and pancreatic cancer cell lines listed in Table 6A, below, and the additional cell lines listed in Table 6B, below. The human mesenchymal stem cell line HMSC.hTERT and normal human fibroblast cell line HFL was included in the test.

DU145 (prostate cancer) = assay: Cytotoxicity assay, DU145 tumor cells; type: cell-based; conditions: Homo sapiens, DU-145, 96 h treatment
Method: as §1, §2

[2] = lower limit of the IC50 range, or the IC50 itself (or its bound) where no Upper value is listed, read-out: K562 IC50 (μm) Lower (μm)
[3] = upper limit of the IC50 range, read-out: K562 IC50 (μm) Upper (μm)
[4] = lower limit of the IC50 range, or the IC50 itself (or its bound) where no Upper value is listed, read-out: DU145 IC50 (μm) Lower (μm)
[5] = upper limit of the IC50 range, read-out: DU145 IC50 (μm) Upper (μm)

Question: Which results are given for `O=C1Nc2cc(S(=O)(=O)Cc3c(Cl)cccc3Cl)ccc2S/C1=C\c1cccs1` [Compound 33, (Z)-6-((2,6-dichlorobenzyl)sulfonyl)-2-(thiophen-2-ylmethylene)-2H-benzo[b][1,4]thiazin-3(4H)-one]?
Answer: IC50 [1, 2]: ≥ 500 nM; IC50 [1, 3]: ≤ 1000 nM; IC50 (DU145 (prostate cancer); [4]): ≥ 500 nM; IC50 (DU145 (prostate cancer); [5]): ≤ 1000 nM

Question: `COC(=O)c1ccc(/C=C2\Sc3ccc(S(=O)(=O)Cc4c(Cl)cccc4Cl)cc3NC2=O)c([N+](=O)[O-])c1` [Compound 35, (Z)-methyl 4-((6-((2,6-dichlorobenzyl)sulfonyl)-3-oxo-3,4-dihydro-2H-benzo[b][1,4]thiazin-2-ylidene)methyl)-3-nitrobenzoate] was tested. Which IC50 [1, 2] did it give?
Answer: ≥ 1000 nM

Question: What about the IC50 [1, 3] of the same molecule?
Answer: ≤ 10000 nM

Question: What about the IC50 (DU145 (prostate cancer); [4]) of the same molecule?
Answer: > 10000 nM

Question: What does the source list for `CSc1nccc(/C=C2\Sc3ccc(S(=O)(=O)Cc4c(Cl)cccc4Cl)cc3NC2=O)n1` [Compound 36, (Z)-6-((2,6-dichlorobenzyl)sulfonyl)-2-((2-(methylthio)pyrimidin-4-yl)methylene)-2H-benzo[b][1,4]thiazin-3(4H)-one]?
Answer: IC50 [1, 2]: > 2500 nM; IC50 (DU145 (prostate cancer); [4]): 2000 nM

Question: For `O=C1Nc2cc(S(=O)(=O)Cc3c(Cl)cccc3Cl)ccc2S/C1=C\c1ccnc(N2CCOCC2)n1` [Compound 37, (Z)-6-((2,6-dichlorobenzyl)sulfonyl)-2-((2-morpholinopyrimidin-4-yl)methylene)-2H-benzo[b][1,4]thiazin-3(4H)-one], which IC50 [1, 2] is on record?
Answer: ≥ 1000 nM

Question: And the IC50 [1, 3]?
Answer: ≤ 10000 nM

Question: What about the IC50 (DU145 (prostate cancer); [4]) of the same molecule?
Answer: ≥ 1000 nM

Question: What about the IC50 (DU145 (prostate cancer); [5]) of the same molecule?
Answer: ≤ 10000 nM

Question: With `Cc1ccc(S(=O)(=O)Oc2ccc(/C=C3\Sc4ccc(S(=O)(=O)Cc5c(Cl)cccc5Cl)cc4NC3=O)cc2[N+](=O)[O-])cc1` [Compound 38, (Z)-4-((6-((2,6-dichlorobenzyl)sulfonyl)-3-oxo-3,4-dihydro-2H-benzo[b][1,4]thiazin-2-ylidene)methyl)-2-nitrophenyl 4-methylbenzenesulfonate] as the molecule, how does the IC50 [1, 2] read?
Answer: 100 nM

Question: And the IC50 (DU145 (prostate cancer); [4])?
Answer: 90 nM

Question: `O=C1Nc2cc(S(=O)(=O)Cc3c(Cl)cccc3Cl)ccc2S/C1=C\c1ccc(-c2nn[nH]n2)cc1` [Compound 39, (Z)-2-(4-(2H-tetrazol-5-yl)benzylidene)-6-((2,6-dichlorobenzyl)sulfonyl)-2H-benzo[b][1,4]thiazin-3(4H)-one] was tested. Which IC50 [1, 2] did it give?
Answer: ≥ 1000 nM

Question: And the IC50 [1, 3]?
Answer: ≤ 10000 nM

Question: What about the IC50 (DU145 (prostate cancer); [4]) of the same molecule?
Answer: ≥ 1000 nM

Question: And the IC50 (DU145 (prostate cancer); [5])?
Answer: ≤ 10000 nM

Question: For `COc1ccc2c(c1)S/C(=C\c1ccc(OC(C)=O)c([N+](=O)[O-])c1)C(=O)N2C(C)=O` [Compound 40, (Z)-4-((4-acetyl-7-methoxy-3-oxo-3,4-dihydro-2H-benzo[b][1,4]thiazin-2-ylidene)methyl)-2-nitrophenyl acetate], which IC50 [1, 2] is on record?
Answer: 1500 nM

Question: What about the IC50 (DU145 (prostate cancer); [4]) of the same molecule?
Answer: 2000 nM

Question: `O=C1Nc2cc(S(=O)(=O)Cc3c(Cl)cccc3Cl)ccc2S/C1=C\c1ccc(OCc2ccccc2)c([N+](=O)[O-])c1` [Compound 41, (Z)-2-(4-(benzyloxy)-3-nitrobenzylidene)-6-((2,6-dichlorobenzyl)sulfonyl)-2H-benzo[b][1,4]thiazin-3(4H)-one] was tested. Which IC50 [1, 2] did it give?
Answer: 750 nM

Question: What about the IC50 (DU145 (prostate cancer); [4]) of the same molecule?
Answer: 1500 nM

Question: `O=C1Nc2ccc(F)cc2S/C1=C\c1ccc(OCc2ccccc2)c([N+](=O)[O-])c1` [Compound 43, (Z)-2-(4-(benzyloxy)-3-nitrobenzylidene)-7-fluoro-2H-benzo[b][1,4]thiazin-3(4H)-one] was tested. Which IC50 [1, 2] did it give?
Answer: > 10000 nM

Question: What about the IC50 (DU145 (prostate cancer); [4]) of the same molecule?
Answer: > 10000 nM

Question: With `O=C1Nc2ccc(F)cc2S/C1=C\c1ccc(O)c([N+](=O)[O-])c1` [Compound 44, (Z)-7-fluoro-2-(4-hydroxy-3-nitrobenzylidene)-2H-benzo[b][1,4]thiazin-3(4H)-one] as the molecule, how does the IC50 [1, 2] read?
Answer: 250 nM

Question: And the IC50 (DU145 (prostate cancer); [4])?
Answer: 750 nM
